Data taken from ChEMBL document CHEMBL1136369, “N,N-disubstituted piperazines: synthesis and affinities at alpha4beta2(*) and alpha7(*) neuronal nicotinic acetylcholine receptors” (Bioorg Med Chem Lett, 2003).
pKi: −log10 of the molar value.

How the values were obtained:
[1] = biological target: Neuronal acetylcholine receptor subunit alpha-7 (Rattus norvegicus, UniProt Q05941); experiment: Binding affinity towards alpha-7 neuronal nicotinic acetylcholine receptor (nAChRs) measured by using the inhibition of [3H]-MLA binding to whole brain membrane
Chain of Neuronal acetylcholine receptor subunit alpha-7 (Q05941 whole entry): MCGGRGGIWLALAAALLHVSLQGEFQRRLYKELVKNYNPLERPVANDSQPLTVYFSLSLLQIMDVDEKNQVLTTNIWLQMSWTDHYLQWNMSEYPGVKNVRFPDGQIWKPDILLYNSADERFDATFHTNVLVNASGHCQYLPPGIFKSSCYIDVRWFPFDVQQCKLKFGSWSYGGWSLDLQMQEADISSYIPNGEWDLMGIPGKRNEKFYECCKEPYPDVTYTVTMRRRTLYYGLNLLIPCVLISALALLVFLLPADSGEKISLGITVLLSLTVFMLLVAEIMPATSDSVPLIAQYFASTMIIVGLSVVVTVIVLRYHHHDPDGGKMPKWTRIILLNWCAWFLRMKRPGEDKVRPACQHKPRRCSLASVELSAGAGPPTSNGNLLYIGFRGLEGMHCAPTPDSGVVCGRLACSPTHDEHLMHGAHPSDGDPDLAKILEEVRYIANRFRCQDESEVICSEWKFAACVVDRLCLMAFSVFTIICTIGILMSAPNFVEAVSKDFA

[2] = biological target: Neuronal acetylcholine receptor; alpha4/beta2 (Rattus norvegicus, UniProt P09483+P12390); experiment: Binding affinity towards alpha4-beta2 measured by using the inhibition of [3H]NIC binding to rat striatal membrane; design: species or system Striatum
Chain of Neuronal acetylcholine receptor; alpha4/beta2 (P09483 whole entry): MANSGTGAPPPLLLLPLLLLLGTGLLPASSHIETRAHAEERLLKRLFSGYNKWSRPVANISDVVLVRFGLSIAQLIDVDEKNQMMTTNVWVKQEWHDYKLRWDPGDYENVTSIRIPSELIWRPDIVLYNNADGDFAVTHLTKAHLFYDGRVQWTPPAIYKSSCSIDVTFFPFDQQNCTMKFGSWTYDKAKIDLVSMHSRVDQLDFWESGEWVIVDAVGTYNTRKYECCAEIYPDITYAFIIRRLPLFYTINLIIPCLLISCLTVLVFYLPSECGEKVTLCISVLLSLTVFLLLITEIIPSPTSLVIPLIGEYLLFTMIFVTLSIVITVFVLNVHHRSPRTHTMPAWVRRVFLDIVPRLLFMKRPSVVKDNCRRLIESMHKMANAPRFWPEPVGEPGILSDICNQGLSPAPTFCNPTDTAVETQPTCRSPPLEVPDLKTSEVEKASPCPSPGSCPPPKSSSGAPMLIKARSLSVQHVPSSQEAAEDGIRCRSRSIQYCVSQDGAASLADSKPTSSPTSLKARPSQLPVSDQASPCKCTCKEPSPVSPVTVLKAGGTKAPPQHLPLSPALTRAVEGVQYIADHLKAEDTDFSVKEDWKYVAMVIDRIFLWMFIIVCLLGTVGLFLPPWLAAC
Chain of Neuronal acetylcholine receptor; alpha4/beta2 (P12390 whole entry): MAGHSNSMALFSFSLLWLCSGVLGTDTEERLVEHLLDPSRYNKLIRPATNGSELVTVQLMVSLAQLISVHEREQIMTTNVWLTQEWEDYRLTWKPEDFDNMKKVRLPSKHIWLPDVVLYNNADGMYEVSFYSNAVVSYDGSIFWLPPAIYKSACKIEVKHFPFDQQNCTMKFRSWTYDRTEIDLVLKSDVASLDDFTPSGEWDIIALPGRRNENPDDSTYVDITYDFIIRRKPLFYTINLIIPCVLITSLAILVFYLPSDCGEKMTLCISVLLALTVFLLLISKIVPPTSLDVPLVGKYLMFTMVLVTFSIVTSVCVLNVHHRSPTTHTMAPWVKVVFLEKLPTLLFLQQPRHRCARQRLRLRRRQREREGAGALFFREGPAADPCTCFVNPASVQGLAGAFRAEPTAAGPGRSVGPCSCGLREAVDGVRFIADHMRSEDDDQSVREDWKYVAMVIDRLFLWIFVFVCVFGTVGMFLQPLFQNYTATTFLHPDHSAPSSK

Row | pKi [1] | Structure (SMILES) | pKi [2]
1 | < 4.00 | CN1CCC[C@H]1CN1CCN(Cc2cccnc2)CC1 | 
2 | < 4.00 | O=C([C@@H]1CCCN1)N1CCN(Cc2ccccn2)CC1 | < 4.00
3 | < 4.00 | c1cncc(CN2CCN(C[C@@H]3CCCN3)CC2)c1 | < 4.00
4 | < 4.00 | O=C(C1CCCCN1)N1CCN(Cc2ccncc2)CC1 (racemic) | 4.22
5 | < 4.00 | CN1CCCCC1CN1CCN(Cc2cccnc2)CC1 (racemic) | 
6 | < 4.00 | O=C(C1CCCCN1)N1CCN(Cc2ccccn2)CC1 (racemic) | < 4.00
7 | < 4.00 | c1cncc(CN2CCN(CC3CCCCN3)CC2)c1 (racemic) | < 4.00

Row | Structure (SMILES) | pKi [1] | pKi [2]
8 | CN1CCC[C@H]1CN1CCN(Cc2ccncc2)CC1 | < 4.00 | 4.41
9 | c1cc(CN2CCN(C[C@@H]3CCCN3)CC2)ccn1 | < 4.00 | 4.34
10 | CN1CCCCC1CN1CCN(Cc2ccncc2)CC1 (racemic) | < 4.00 | 4.38
11 | c1cc(CN2CCN(CC3CCCCN3)CC2)ccn1 (racemic) | < 4.00 | < 4.00
12 | O=C(C1CCCCN1)N1CCN(Cc2cccnc2)CC1 (racemic) [SCR01020] | < 4.00 | 4.26
13 | c1cncc([C@@H]2CCCN2)c1 [NORNICOTINE] | 5.92 | 
